The record followed here is patent publication US8829014B2, “Thiazole and thiophene analogues, and their use in treating autoimmune diseases and cancers” (Board of Supervisors of Louisiana State University and …, priority 2006, dated 2014).

Like-named read-outs stand apart in the source and are kept apart here.

For assay [1], the system named is NF-κB. As to the kind of experiment: NF-κB inhibitor screen: basal NF-κB-dependent luciferase expression in HEK/NF-κB cell line. The format is cell-based. Particulars: 1 uM, determined as described in Example 398; for inhibition at 1 µM: read-out: NFkB inhibition @ 1 uM. The text has this:
Development of NF-κB and AP-1 Screens: Two HEK293 cell lines were purchased from Panomics. One cell line was stably transfected with a plasmid in which luciferase expression is regulated by six copies of the NF-κB transcriptional element (5′-[…]-3′); and the other cell line was stably transfected with a plasmid in which luciferase expression is regulated by three copies of the AP-1 transcriptional element (TGACTAA). To test the biological activity of the promoters, the HEK/NF-κB cell line was stimulated with TNF-α (20 ng/ml) for 24 hours, and the HEK/AP-1 cell line was stimulated with PMA (10 ng/ml) for 24 hours. […] In addition, a pyrimidine carboxyimide that had previously been shown (ref. 58) to be an inhibitor of transcription mediated by NF-κB and AP-1 reduced luciferase activity by approximately 40% in each of the NF-κB and AP-1 cell lines.
The above two assays analyzed the effects of the compounds on post-transcriptional gene regulation, which is known to play a key role in cancer and inflammation. By contrast, the NF-κB assay and the following assay (AP-1) test whether the compounds act at the transcriptional level. Thirty-nine representative compounds were screened in an HEK/NF-κB cell line. HEK cells were stably transfected with a plasmid expressing luciferase under the control of the NF-κB promoter. These transfected cells were plated on a 96-well plate. As above, initial screening was carried out at 1.0 μM by adding compound in DMSO (0.3%) twenty-four hours after plating. Each compound was added to each of triplicate wells. DMSO (0.3%) was added to one set of wells as a control. Luciferase activity was determined using Promega's Brite-Glo kit, and the mean for each sample was normalized to that for DMSO.
The fourteen representative compounds identified in the eIF4E screen as interesting (Numbered 2, 3, 4, 6, 8, 11, 15, 20, 21, 24, 25, 32, 33, and 35) were then tested for luciferase activity in a six-point dose response (10 nM, 33 nM, 100 nM, 330 nM, 1000 nM, and 3300 nM). Screening was carried out as described above by monitoring the effects of the compounds on basal NF-κB-dependent luciferase expression. Each dose was used out in triplicate, and repeated between two and four times. Results were normalized by the average expression level at the lowest concentration level, as described above.

Assay [2] relates to AP-1. The assay can be described thus: AP-1 inhibitor screen: basal AP-1-dependent luciferase expression in HEK/AP-1 cell line. In kind it is cell-based. Particulars: 1 uM, determined as described in Example 398; for inhibition at 1 µM: AP1. The text has this:
Development of NF-κB and AP-1 Screens: Two HEK293 cell lines were purchased from Panomics. One cell line was stably transfected with a plasmid in which luciferase expression is regulated by six copies of the NF-κB transcriptional element (5′-[…]-3′); and the other cell line was stably transfected with a plasmid in which luciferase expression is regulated by three copies of the AP-1 transcriptional element (TGACTAA). To test the biological activity of the promoters, the HEK/NF-κB cell line was stimulated with TNF-α (20 ng/ml) for 24 hours, and the HEK/AP-1 cell line was stimulated with PMA (10 ng/ml) for 24 hours.
HEK cells were stably transfected with a plasmid expressing luciferase under the control of the AP-1 promoter. The transfected cells were plated on a 96-well plate for 24 hr. Then 1.0 μM of each compound in DMSO (0.3%) was added to triplicate wells and incubated for 48 hr. DMSO (0.3%) was added to one set of triplicate wells as a control. Luciferase activity was determined using Promega's Brite-Glo kit, and the mean for each sample was normalized to that for DMSO.
Screening was carried out as described above, monitoring the compounds' effects on basal AP-1-dependent luciferase expression. Each dose-response experiment was carried out in triplicate and repeated between two and four times.

In another assay the test system is carageenan-induced edema. As to the kind of experiment: Carrageenan-induced rat paw edema test (anti-inflammatory activity). The format is in vivo, Sprague-Dawley rats. Further details: % Protection: concentration or dose not given beside the values. Particulars: for inhibition in vivo at 50 mg/kg: Rattus norvegicus, po, 3 h. The method in brief:
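Sprague-Dawley rats (male and female, 150-250 g), fasted 18 h, given compound orally at 50 mg/kg in 0.1% sodium CMC (alternatively i.v., s.c. or i.p.). 1% carrageenan injected sub-plantar in right hind paw 1 h later. Paw displacement read again 3 h later; % protection = [(Control−Test)/Control]×100 versus saline control.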
(In general: The carrageenan paw model is a standard test of acute inflammation.)

In assay [3] the test system is NF-κB. As to the kind of experiment: TNF-α-induced NF-κB-dependent luciferase expression in HEK cells. In kind it is cell-based. Particulars: luciferase in HEK/NF-κB cells, as described in Example 398; for inhibition at 1 µM: Homo sapiens, HEK293, 1 uM, read-out: NFkB inhibition @ 1 uM.
Assay [4] concerns AP-1. As to the kind of experiment: PMA-induced AP-1 luciferase expression in HEK cells. Particulars: luciferase in HEK/AP-1 cells, as described in Example 398; for inhibition at 1 µM: AP1, 1 uM. The format is cell-based.
[5] abbreviates: carrageenan-induced rat paw edema, defined in Example 397.
The mark [6] stands for this setting: carrageenan-induced rat paw edema, defined in Example 397, read-out: % Protection.
The mark [7] stands for this setting: rat paw edema, 50 mg/kg, reading 3 hours after carrageenan, [(Control−Test)/Control]×100%, read-out: % Protection P.
[8] abbreviates: rat paw edema, 50 mg/kg, reading 3 hours after carrageenan, [(Control−Test)/Control]×100%.

With “2-[2-(1-Furan-2-yl-vinylamino)-4-phenyl-thiazol-5-yl]-3-(4-Chloro-phenyl)-3H-quinazolin-4-one [Example 255]”, in the assay on NF-κB [1], the “NFkB inhibition @ 1 uM” value is 0. In addition, in the assay with AP-1 [2], the “AP-1 inhibition @ 1 uM” value came out at 7.
As to “2-[2-(1-Furan-2-yl-vinylamino)-4-phenyl-thiazol-5-yl]-3-(4-acetyl-phenyl)-3H-quinazolin-4-one [Example 270]”, in the assay on carageenan-induced edema (setting [5]), the “% Protection” value is reported as 20%. Besides, the “NFkB inhibition @ 1 uM” value with NF-κB [1] is given as 11. The “AP-1 inhibition @ 1 uM” value with AP-1 [2] was 18.
The like results for “2-[2-(1-Furan-2-yl-vinylamino)-4-phenyl-thiazol-5-yl]-3-(4-methoxyphenyl)-3H-quinazolin-4-one [Example 224]” were, in that order, 79%, −24 and 2.
On the same counts, the results for “2-[2-(1-Furan-2-yl-vinylamino)-4-phenyl-thiazol-5-yl]-3-phenyl-3H-quinazolin-4-one [Example 164]” are 66%, 2 and 53.
Turning to `CCOC(=O)Nc1nc(C)c(-c2nc3ccccc3c(=O)n2-c2ccccc2)s1` [Example 154, (4-Methyl-5-(4-oxo-3-phenyl-3,4-dihydro-quinazolin-2-yl)-thiazol-2-yl)-carbamic acid ethyl ester], the inhibition in vivo at 50 mg/kg in the assay with carageenan-induced edema (setting [6]) was determined as 12%. The values for the inhibition at 1 µM in the assay with NF-κB [1] and in the assay on AP-1 [2] were 19% and -13%, respectively.
On the same counts, the results for `COC(=O)Nc1nc(C)c(-c2nc3ccccc3c(=O)n2-c2ccccc2)s1` [Example 155, (4-Methyl-5-(4-oxo-3-phenyl-3,4-dihydro-quinazolin-2-yl)-thiazol-2-yl)-carbamic acid methyl ester] are 0%, 24% and -1%.
`Cc1nc(Nc2ccccc2)sc1-c1nc2ccccc2c(=O)n1-c1ccccc1` [Example 157, 2-(4-Methyl-2-phenylamino-thiazol-5-yl)-3-phenyl-3H-quinazolin-4-one]: the inhibition in vivo at 50 mg/kg with carageenan-induced edema (setting [6]) worked out at 12%. In addition, the inhibition at 1 µM with NF-κB [1] amounted to 25%; in the assay with AP-1 [2] it was 16%.
With `CCOC(=O)Nc1nc(C)c(-c2nc3ccccc3c(=O)n2-c2ccccc2C)s1` [Example 166, [4-Methyl-5-(4-oxo-3-o-tolyl-3,4-dihidro-quinazolin-2-yl)-thiazol-2-yl]-carbamic acid ethyl ester], in the assay on NF-κB [1], the “NFkB inhibition @ 1 uM” value came out at 21. Also, the “AP-1 inhibition @ 1 uM” value in the assay on AP-1 [2] was determined as 14.
On to `COc1ccc(-n2c(-c3sc(NC(=O)c4ccc(C)cc4)nc3-c3ccccc3)nc3ccccc3c2=O)cc1` [Example 223, 4-Methyl-N-[5-(4-oxo-3-(4-methoxyphenyl)-3,4-dihydroquinazolin-2-yl)-4-phenyl-thiazol-2-yl]-benzamide], for which the inhibition at 1 µM in the assay with NF-κB [1] is -24%; with AP-1 [2] it was -28%.
For the compound `Cc1ccc(Nc2nc(-c3ccccc3)c(-c3nc4ccccc4c(=O)n3-c3ccc(Cl)cc3)s2)cc1` [Example 257, 2-[2-(4-Methyl-phenylamino)-4-phenyl-thiazol-5-yl]-3-(4-Chloro-phenyl)-3H-quinazolin-4-one], the inhibition at 1 µM was -10% in the assay with NF-κB [1] and -51% in the assay on AP-1 [2].
Turning to `COC(=O)Nc1nc(-c2ccccc2)c(-c2nc3ccccc3c(=O)n2-c2ccc(C(C)=O)cc2)s1` [Example 265, [5-(4-Oxo-3-(4-acetyl-phenyl)-3,4-dihidro-quinazolin-2-yl)-4-phenyl-thiazol-2-yl]-carbamic acid methyl ester], in the assay on NF-κB [1], the “NFkB inhibition @ 1 uM” value is recorded as 0. For the same compound, the “AP-1 inhibition @ 1 uM” value in the assay on AP-1 [2] stood at 16.
In the case of `Cc1c(OCC(F)(F)F)ccnc1-c1sc(N2CCN(C(=O)c3ccco3)CC2)nc1-c1ccccc1` [Example 389, Furan-2-yl-(4-{5-[3-methyl-4-(2,2,2-trifluoro-ethoxy)-pyridin-2-yl]-4-phenyl-thiazol-2-yl}-piperazin-1-yl)-methanone], the inhibition in vivo at 50 mg/kg in the assay with carageenan-induced edema (setting [7]) amounted to 61.6%. Besides, the figures for the inhibition at 1 µM in the assay on NF-κB [3] and with AP-1 [4] were 30.7% and 42.5%, respectively.
Consider `O=C(c1ccccn1)c1sc(N2CCN(C(=O)c3ccco3)CC2)nc1-c1ccccc1` [Example 390, {2-[4-(Furan-2-carbonyl)-piperazin-1-yl]-4-phenyl-thiazol-5-yl}-pyridin-2-yl-methanone], for which, in the assay on carageenan-induced edema (setting [7]), the inhibition in vivo at 50 mg/kg is 17%. For the same compound, the inhibition at 1 µM in the assay on NF-κB [3] was found to be 0.47%; with AP-1 [4], 40.9%.
The like results for `Cc1ccc(Nc2nc(-c3ccccc3)c(C(=O)c3sc(Nc4ccc(C)cc4)nc3-c3ccccc3)s2)cc1` [Example 394, Bis-[2-(4-methyl-phenylamino)-4-phenyl-thiazol-5-yl]-methanone] were, in that order, 56%, 18.7% and 41.9%.
With “(5-Morpholin-4-yl-4-pyridin-3-yl-thiophene-2-yl)-phenyl-methanone [Example 90]”, in the assay with carageenan-induced edema (setting [8]), the “% Protection P” value is recorded as 6.09%. Further, in the assay on NF-κB [3], the “NFkB inhibition @ 1 uM” value came out at 7.91. Further, in the assay with AP-1 [4], the “AP-1 inhibition @ 1 uM” value amounted to 59.49.
For “Bis-[2-(2-benzoyl-amino)-4-benzayl-thiazole-5-yl]-methanone [Example 135]”, the “% Protection P” value in the assay with carageenan-induced edema (setting [8]) is reported as 34.72%. The “NFkB inhibition @ 1 uM” value in the assay on NF-κB [3] was 39.98. Besides, the “AP-1 inhibition @ 1 uM” value in the assay with AP-1 [4] is on record as 41.43.
On the same counts, the results for “Bis-[2-(2-furoyl-amino)-4-benzayl-thiazole-5-yl]-methanone [Example 136]” are 45.13%, 44.46 and 32.23.
On the same counts, the results for “Bis-[4-(4-chloro-phenyl)-5-morpholin-4-yl-thiophen-2-yl]-methanone [Example 114]” are 30.55%, −39.23 and −70.59.
In the case of “Dimethyl[carbonyl-bis(4-phenyl-1,3-thiazole-5,2-diyl)]biscarbamate [Example 130]”, the “% Protection P” value with carageenan-induced edema (setting [8]) is listed as 40.78%. Moreover, in the assay on NF-κB [3], the “NFkB inhibition @ 1 uM” value was found to be 12.78. For the same compound, the “AP-1 inhibition @ 1 uM” value in the assay on AP-1 [4] amounted to 9.2.
The like results for “N-{4-[4-(4-Chloro-phenyl)-5-morpholin-4-yl-thiophen-2-carbonyl]-phenyl}acetamide [Example 85]” were, in that order, 20%, −17.34 and 22.58.
As to “{5-[3-(3-Methoxy-phenyl)-4-oxo-3,4-dihydro-quinazolin-yl]-thiazol-2-yl}-carbamic acid ethyl ester [Example 209]”, the “NFkB inhibition @ 1 uM” value with NF-κB [1] amounted to 29. The “AP-1 inhibition @ 1 uM” value in the assay with AP-1 [2] came out at 5.

A word on the inhibition: it is the drop in the measured response relative to a control, in per cent.
